# Laboratory results published in article PMC10184157 (ACS Medicinal Chemistry Letters, 2023).
# Test system: athymic nude mice doubly xenografted with PC3 cells and 22Rv1 cells
# Experiment: Quantitative PET imaging in doubly xenografted mice
# Format: in vivo
# Settings: PET VOI analysis, 50-70 min p.i., retro-orbital injection
compound,measurement,value
"O=C([O-])CN(CCN(CC(=O)[O-])Cc1cc(CCC(=O)NCCCCCC(=O)NCCCC[C@H](NC(=O)N[C@@H](CCC(=O)O)C(=O)O)C(=O)O)ccc1[O-])Cc1cc(CCC(=O)O)ccc1[O-].[68Ga+3].[OH3+] [[^68Ga]Ga-PSMA11, HO-Glu-CO-Lys(HBED-CC-Ahx)-OH]",uptake in 22Rv1 tumor,3.22 % ID/g
